This is an account of results in patent publication US8324264B1, “Inhibitors of bacterial biofilms and related methods” (Sequoia Sciences, Inc., priority 2011, dated 2012).

Converted amounts (≈) assume the structure as drawn. Where a name gives a salt, the structure may show the parent alone.

For one series, the system named is E. coli biofilms. The series can be described thus: Biofilm growth assay (spreading biofilm on semi-solid agar), E. coli. The note with it: biofilm growth assay, overnight 37° C., vs negative controls, Tables 1-5; for IC85: Escherichia coli, read-out: E. coli: concentration that reduces the area of the spreading biofilm by greater than or equal to 85%. It counts as cell-based. In short, it runs like this:
(§1)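 Values are compound concentrations (μg/ml) that cut the spreading-biofilm zone area by ≥85% relative to negative controls after overnight 37 °C growth from 5 μL central inoculum. E. coli plates: LB, 0.6% agar, 0.5% glucose; P. aeruginosa plates: M8 agar plus 0.2% glucose, 100 μM CaCl2, 1 mM MgSO4, 0.5% Casamino acids.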

The test system of a further series is P. aeruginosa biofilms. The experiment in a line: Biofilm growth assay (spreading biofilm on semi-solid agar), P. aeruginosa. It counts as cell-based. The note with it: biofilm growth assay, overnight 37° C., vs negative controls, Tables 1-5; for IC85: Pseudomonas aeruginosa, read-out: P. aeruginosa: concentration that reduces the area of the spreading biofilm by greater than or equal to 85%. In short, it runs like this:
as §1

The melting point is the temperature, or range, at which the solid turns liquid. In the case of `C[C@@H]1c2n[nH]c(N)c2C[C@]2(C)C3CC=C4[C@@H]5CC(C)(C)CC[C@]5(C(=O)O)CC[C@@]4(C)[C@]3(C)CC[C@@H]12` (stereo partly drawn) (as salt: ammonium) [Example 3, (4aS,6aS,6bR,8aS,9S,13aS,15bS)-12-Amino-2,2,6a,6b,9,13a-hexamethyl-2,3,4,4a,5,6,6a,6b,7,8,8a,9,11,13,13a,13b,14,15b-octadecahydro-1H-chryseno[1,2-f]indazole-4-a-carboxylic acid], the melting point was over 300 °C.
On the same count and under the same terms, the same measure for `CC1(C)CC[C@]2(c3n[nH]c(O)c3CCN)CC[C@]3(C)C(=CCC4[C@@]5(C)Cc6c(n[nH]c6N)C(C)(C)[C@@H]5CC[C@]43C)[C@@H]2C1` (stereo partly drawn) (as salt: ammonium) [Compound 84, 3-((4aS,6aS,6bR,13aR)-12-Amino-2,2,6a,6b,9,9,13a-heptamethyl-2,3,4,4a,5,6,6a,6b,7,8,8a,9,11,13,13a,13b,14,15b-octadecahydro-1H-chryseno[1,2-f]indazol-4-a-yl)-4-(2-aminoethyl)-1H-pyrazol-5-ol]: 250 to 260 °C (dec.); for `CC1(C)CC[C@]2(C(=O)Nc3nnc(S)s3)CC[C@]3(C)C(=CCC4[C@@]5(C)Cc6c(n[nH]c6N)C(C)(C)C5CC[C@]43C)C2C1` (stereo partly drawn) (as salt: ammonium) [Compound 74, (4aS,6aS,6bR,13aR)-12-Amino-N-(5-mercapto-1,3,4-thiadiazol-2-yl)-2,2,6a,6b,9,9,13a-heptamethyl-2,3,4,4a,5,6,6a,6b,7,8,8a,9,11,13,13a,13b,14,15b-octadecahydro-1H-chryseno[1,2-f]indazole-4-a-carboxamide]: over 300 °C; for `C[C@H]1[C@H](C)CC[C@]2(C(=O)O)CC[C@]3(C)C(=CCC4[C@@]5(C)Cc6c(n[nH]c6N)C(C)(C)[C@@H]5CC[C@]43C)[C@H]12` (stereo partly drawn) (as salt: ammonium) [Example 2, (4aS,6aS,6bR,13aR)-12-Amino-2,2,6a,6b,9,9,13a-heptamethyl-2,3,4,4a,5,6,6a,6b,7,8,8a,9,11,13,13a,13b,14,15b-octadecahydro-1H-chryseno[1,2-f]indazole-4-a-carboxylic acid]: 258 to 278 °C.
Same read-out and setting: the same measure for `Cc1nnc(S)n1NC(=O)[C@]12CCC(C)(C)CC1C1=CCC3[C@@]4(C)Cc5c(n[nH]c5N)C(C)(C)C4CC[C@@]3(C)[C@]1(C)CC2` (stereo partly drawn) (as salt: ammonium) [Compound 77, (4aS,6aS,6bR,13aR)-12-Amino-N-(3-mercapto-5-methyl-4H-1,2,4-triazol-4-yl)-2,2,6a,6b,9,9,13a-heptamethyl-2,3,4,4a,5,6,6a,6b,7,8,8a,9,11,13,13a,13b,14,15b-octadecahydro-1H-chryseno[1,2-f]indazole-4-a-carboxamide]: 250 to 270 °C (dec.); for `CC1(C)CC[C@]2(c3n[nH]c(O)c3N3CCOCC3)CC[C@]3(C)C(=CCC4[C@@]5(C)Cc6c(n[nH]c6N)C(C)(C)[C@@H]5CC[C@]43C)[C@@H]2C1` (stereo partly drawn) (as salt: ammonium) [Compound 88, 3-((4aS,6aS,6bR,13aR)-12-Amino-2,2,6a,6b,9,9,13a-heptamethyl-2,3,4,4a,5,6,6a,6b,7,8,8a,9,11,13,13a,13b,14,15b-octadecahydro-1H-chryseno[1,2-f]indazol-4-a-yl)-4-morpholino-1H-pyrazol-5-ol]: over 300 °C; for `CC1=C2[C@@H]3CC(C)(C)CC[C@]3(C(=O)O)CC[C@@]2(C)[C@]2(C)CC[C@H]3C(C)(C)c4n[nH]c(N)c4C[C@]3(C)C2C1` (stereo partly drawn) (as salt: ammonium) [Example 4, (4aS,6aS,6bR,8aR,13aR,15bS)-12-Amino-2,2,6a,6b,9,9,13a,15-octamethyl-2,3,4,4a,5,6,6a,6b,7,8,8a,9,11,13,13a,13b,14,15b-octadecahydro-1H-chryseno[1,2-f]indazole-4-a-carboxylic acid]: over 300 °C.
For `CC1(C)CC[C@]2(C(=O)O)CC[C@]3(C)C(=C(c4ccc5c(c4)CCN5)CC4[C@@]5(C)Cc6c(n[nH]c6N)C(C)(C)[C@@H]5CC[C@]43C)[C@@H]2C1` (stereo partly drawn) (as salt: ammonium) [Example 11, (4aS,6aS,6bR,13aR)-12-Amino-15-(indolin-5-yl)-2,2,6a,6b,9,9,13a-heptamethyl-2,3,4,4a,5,6,6a,6b,7,8,8a,9,11,13,13a,13b,14,15b-octadecahydro-1H-chryseno[1,2-f]indazole-4-a-carboxylic acid], the melting point is 170 to 190 °C (dec.).
As to `CC1(C)CC[C@]2(C(=O)O)CC[C@]3(C)C(=C(c4ccc(N)nc4)CC4[C@@]5(C)Cc6c(n[nH]c6N)C(C)(C)[C@@H]5CC[C@]43C)[C@@H]2C1` (stereo partly drawn) [Example 41, (4aS,6aS,6bR,8aR,13aR,15bS)-12-Amino-15-(6-aminopyridin-3-yl)-2,2,6a,6b,9,9,13a-heptamethyl-2,3,4,4a,5,6,6a,6b,7,8,8a,9,11,13,13a,13b,14,15b-octadecahydro-1H-chryseno[1,2-f]indazole-4-a-carboxylic acid], the “E. coli: concentration that reduces the area of the spreading biofilm by greater than or equal to 85%” value in the series with E. coli biofilms came to 2 µg/mL. Moreover, the “P. aeruginosa: concentration that reduces the area of the spreading biofilm by greater than or equal to 85%” value in the series on P. aeruginosa biofilms came to 1 µg/mL.
In the case of `CC1(C)CC[C@]2(C(=O)O)CC[C@]3(C)C(=CCC4[C@@]5(C)Cc6c[nH]nc6C(C)(C)C5CC[C@]43C)C2C1` (some centres unmarked) [D], the IC85 in the series with E. coli biofilms was determined as 4 µg/mL (≈ 8.36 µM); with P. aeruginosa biofilms, 1 µg/mL (≈ 2.09 µM).
With `CC1(C)CC[C@]2(C(=O)O)CC[C@]3(C)C(=C(c4coc(CN5CCOCC5)c4)CC4[C@@]5(C)Cc6c(n[nH]c6N)C(C)(C)[C@@H]5CC[C@]43C)[C@@H]2C1` (stereo partly drawn) [Example 40, (4aS,6aS,6bR,8aR,13aR,15bS)-12-Amino-2,2,6a,6b,9,9,13a-heptamethyl-15-(5-(morpholinomethyl)furan-3-yl)-2,3,4,4a,5,6,6a,6b,7,8,8a,9,11,13,13a,13b,14,15b-octadecahydro-1H-chryseno[1,2-f]indazole-4-a-carboxylic acid], in the series with E. coli biofilms, the “E. coli: concentration that reduces the area of the spreading biofilm by greater than or equal to 85%” value worked out at 2 µg/mL. Besides, in the series with P. aeruginosa biofilms, the “P. aeruginosa: concentration that reduces the area of the spreading biofilm by greater than or equal to 85%” value was found to be 0.5 µg/mL.
Turning to `C[C@@H]1c2n[nH]c(N)c2C[C@]2(C)C3CC=C4[C@@H]5CC(C)(C)CC[C@]5(C(=O)O)CC[C@@]4(C)[C@]3(C)CC[C@@H]12` (stereo partly drawn) [Example 3, (4aS,6aS,6bR,8aS,9S,13aS,15bS)-12-Amino-2,2,6a,6b,9,13a-hexamethyl-2,3,4,4a,5,6,6a,6b,7,8,8a,9,11,13,13a,13b,14,15b-octadecahydro-1H-chryseno[1,2-f]indazole-4-a-carboxylic acid], the IC85 was 1 µg/mL (≈ 2.08 µM) in the series with E. coli biofilms and 0.5 µg/mL (≈ 1.04 µM) in the series with P. aeruginosa biofilms.
Regarding `CC1(C)CC[C@]2(C(=O)n3cnc(S)n3)CC[C@]3(C)C(=CCC4[C@@]5(C)Cc6c(n[nH]c6N)C(C)(C)C5CC[C@]43C)C2C1` (stereo partly drawn) [Compound 76, ((4aS,6aS,6bR,13aR)-12-Amino-2,2,6a,6b,9,9,13a-heptamethyl-2,3,4,4a,5,6,6a,6b,7,8,8a,9,11,13,13a,13b,14,15b-octadecahydro-1H-chryseno[1,2-f]indazol-4-a-yl)(3-mercapto-1H-1,2,4-triazol-1-yl)methanone], the IC85 in the series on E. coli biofilms worked out at 2 µg/mL (≈ 3.47 µM); in the series with P. aeruginosa biofilms it was 0.5 µg/mL (≈ 0.867 µM).
`CC1(C)CC[C@]2(C(=O)O)CC[C@]3(C)C(=CCC4[C@@]5(C)Cc6c(n[nH]c6Br)C(C)(C)C5CC[C@]43C)C2C1` (some centres unmarked) [H]: the IC85 with E. coli biofilms was over 8 µg/mL; in the series with P. aeruginosa biofilms it was 8 µg/mL (≈ 14.3 µM).
